Patent US20140200134A1, “Anthranilamide Compounds and their use as Pesticides” (BASF SE, priority 2011, published 2014)

Legend:
Assay type in all cases: in vivo
[1] = test system: Mediterranean fruitfly (Ceratitis capitata); test: Mediterranean fruitfly microtiter plate diet test; conditions: 120 h, sprayed onto insect diet, egg and larval mortality after 5 days, read-out: mortality in comparison with untreated controls
Experimental: B.3 Mediterranean fruitfly (Ceratitis capitata)
For evaluating control of Mediterranean fruitfly (CeratitiS capitate) the test unit consisted of microtiter plates containing an insect diet and 50-80 C. capitata eggs.
(§1) The compounds were formulated using a solution containing 75% v/v water and 25% v/v DMSO. Different concentrations of formulated compounds were sprayed onto the insect diet at 5 μl, using a custom built micro atomizer, at two replications.
After application, microtiter plates were incubated at about 28±1° C. and about 80±5% relative humidity for 5 days. Egg and larval mortality was then visually assessed.

[2] = test system: Cowpea aphid (aphis craccivora); test: Cowpea aphid spray test on potted cowpea plants; conditions: sprayed cowpea plants, assessed after 72 hours, read-out: mortality in comparison with untreated controls
Experimental: B.1 Cowpea aphid (aphis craccivora)
The active compound was dissolved at the desired concentration in a mixture of 1:1 (vol:vol) distilled water:acetone. Surfactant (Alkamuls® EL 620) was added at a rate of 0.1% (vol/vol). The test solution was prepared at the day of use.
Potted cowpea plants were colonized with approximately 50-100 aphids of various stages by manually transferring a leaf tissue cut from infested plant 24 hours before application. Plants were sprayed after the pest population had been recorded. Treated plants were maintained on light carts at about 28° C. Percent mortality was assessed after 72 hours.

[3] = test system: Vetch aphid (Megoura viciae); test: Vetch aphid broad bean leaf disk microtiter test; conditions: foliar, 120 h, sprayed broad bean leaf disks, adult aphids, 5 days, read-out: mortality in comparison with untreated controls
Experimental: B.6 Vetch aphid (Megoura viciae)
For evaluating control of vetch aphid (Megoura viciae) through contact or systemic means the test unit consisted of 24-well-microtiter plates containing broad bean leaf disks. The compounds were formulated using a solution containing 75% v/v water and 25% v/v DMSO. Different concentrations of formulated compounds were sprayed onto the leaf disks at 2.5 μl, using a custom built micro atomizer, at two replications.
After application, the leaf disks were air-dried and 5-8 adult aphids placed on the leaf disks inside the microtiter plate wells. The aphids were then allowed to suck on the treated leaf disks and incubated at about 23±1° C. and about 50±5% relative humidity for 5 days. Aphid mortality and fecundity was then visually assessed.

[4] = test system: Boll weevil (Anthonomus grandis); test: Boll weevil microtiter plate diet test; conditions: 120 h, sprayed onto insect diet, egg and larval mortality after 5 days, read-out: mortality in comparison with untreated controls
Experimental: B.8 Boll weevil (Anthonomus grandis)
For evaluating control of boll weevil (Anthonomus grandis) the test unit consisted of 96-well-microtiter plates containing an insect diet and 20-30 A. grandis eggs.
as §1
After application, microtiter plates were incubated at about 25±1° C. and about 75±5% relative humidity for 5 days. Egg and larval mortality was then visually assessed.

[5] = test system: Tobacco budworm (Heliothis virescens); test: Tobacco budworm foliar spray test on cotton plants; conditions: 96 h, sprayed cotton plants, larvae, 4 days after treatment, read-out: mortality in comparison with untreated controls
Experimental: B.7 Tobacco budworm (Heliothis virescens) I
(§2) The active compounds were formulated in cyclohexanone as a 10,000 ppm solution supplied in tubes. The tubes were inserted into an automated electrostatic sprayer equipped with an atomizing nozzle and they served as stock solutions for which lower dilutions were made in 50% acetone:50% water (v/v). A nonionic surfactant (Kinetic®) was included in the solution at a volume of 0.01% (v/v).
Cotton plants were grown 2 plants to a pot and selected for treatment at the cotyledon stage. Test solutions were sprayed onto the foliage by an automated electrostatic plant sprayer equipped with an atomizing spray nozzle. The plants were dried in the sprayer fume hood and then removed from the sprayer. Each pot was placed into perforated plastic bags with a zip closure. About 10 to 11 budworm larvae were placed into the bag and the bags zipped closed. Test plants were maintained in a growth room at about 25° C. and about 20-40% relative humidity for 4 days, avoiding direct exposure to fluorescent light (24 hour photoperiod) to prevent trapping of heat inside the bags. Mortality and reduced feeding were assessed 4 days after treatment, compared to untreated control plants.

[6] = test system: Orchid thrips (dichromothrips corbetti); test: Orchid thrips floral-immersion test; conditions: dipped orchid flowers, adult thrips, 72 hours after treatment, read-out: mortality in comparison with untreated controls
Experimental: B.4 Orchid thrips (dichromothrips corbetti)
Dichromothrips corbetti adults used for bioassay were obtained from a colony maintained continuously under laboratory conditions. For testing purposes, the test compound was diluted in a 1:1 mixture of acetone:water (vol:vol), plus 0.01% vol/vol Alkamuls® EL 620 surfactant.
Thrips potency of each compound was evaluated by using a floral-immersion technique. Plastic petri dishes were used as test arenas. All petals of individual, intact orchid flowers were dipped into treatment solution and allowed to dry. Treated flowers were placed into individual petri dishes along with about 20 adult thrips. The petri dishes were then covered with lids. All test arenas were held under continuous light and a temperature of about 28° ° C. for duration of the assay. After 3 days, the numbers of live thrips were counted on each flower, and along inner walls of each petri dish. The percent mortality was recorded 72 hours after treatment.

[7] = test system: Green Peach Aphid (Myzus persicae); test: Green peach aphid spray test on bell pepper plants; conditions: 120 h, sprayed infested bell pepper plants, after 5 days, read-out: mortality in comparison with untreated controls
Description: B.9 Green Peach Aphid (Myzus persicae)
as §2
Bell pepper plants at the first true-leaf stage were infested prior to treatment by placing heavily infested leaves from the main colony on top of the treatment plants. Aphids were allowed to transfer overnight to accomplish an infestation of 30-50 aphids per plant and the host leaves were removed. The infested plants were then sprayed by an automated electrostatic plant sprayer equipped with an atomizing spray nozzle. The plants were dried in the sprayer fume hood, removed, and then maintained in a growth room under fluorescent lighting in a 24-hr photoperiod at about 25° C. and about 20-40% relative humidity. Aphid mortality on the treated plants, relative to mortality on untreated control plants, was determined after 5 days.

[8] = test system: Diamond back moth (plutella xylostella); test: Diamond back moth cabbage leaf-dip test; conditions: dipped cabbage leaves, 3rd instar larvae, 72 hours after treatment, read-out: mortality in comparison with untreated controls
Experimental: B.2 Diamond back moth (plutella xylostella)
The active compound was dissolved at the desired concentration in a mixture of 1:1 (vol:vol) distilled water:acteone. Surfactant (Alkamuls® EL 620) was added at a rate of 0.1% (vol/vol). The test solution was prepared at the day of use.
Leaves of cabbage were dipped in test solution and air-dried. Treated leaves were placed in petri dishes lined with moist filter paper and inoculated with ten 3rd instar larvae. Mortality was recorded 72 hours after treatment. Feeding damages were also recorded using a scale of 0-100%.

CNC(=O)c1cc(/C=N/OC)cc(C)c1NC(=O)c1ccc(C(F)(F)F)cc1-c1ncccc1Cl [Compound 1-1, 2-[[2-(3-chloro-2-pyridyl)-4-(trifluoromethyl)benzoyl]amino]-5-[(E)-methoxyiminomethyl]-N,3-dimethyl-benzamide]
> 75%: mortality at 2500 ppm [1] | mortality at 500 ppm [2] | mortality at 2500 ppm [3] | mortality at 2500 ppm [4] | mortality at 2500 ppm [5] | mortality at 500 ppm [6] | mortality at 2500 ppm [7] | mortality at 500 ppm [8]

CNC(=O)c1cc(-n2cncn2)cc(C)c1NC(=O)c1ccc(C(F)(F)F)cc1-c1ncccc1Cl [Compound 1-2, 2-[[2-(3-chloro-2-pyridyl)-4-(trifluoromethyl)benzoyl]amino]N,3-dimethyl-5-(1,2,4-triazol-1-yl)benzamide]
> 75%: mortality at 2500 ppm [1] | mortality at 500 ppm [2] | mortality at 2500 ppm [3] | mortality at 2500 ppm [4] | mortality at 2500 ppm [5] | mortality at 500 ppm [6] | mortality at 2500 ppm [7]

CNC(=O)c1cc(/C=N/NC(N)=O)cc(C)c1NC(=O)c1ccc(C(F)(F)F)cc1-c1ncccc1Cl [Compound 1-3, 5-[(E)-(carbamoylhydrazono)methyl]-2-[[2-(3-chloro-2-pyridyl)-4-(trifluoromethyl)benzoyl]amino]-N,3-dimethyl-benzamide]
> 75%: mortality at 500 ppm [2] | mortality at 2500 ppm [5] | mortality at 2500 ppm [7]
